# Results as given in US20180168208A1 (priority 2014, published 2018).
# Where a name gives a salt, the structure may show the parent alone. Read-outs that look alike come from different tables or passages of the source.
# How the values were obtained:
# [1] = target: T1R1/T1R3 receptor (Felis catus, UniProt E3UMS2); assay: cell-based; settings: for Max resp % of Ala, +IMP (0.2 mM): relative to alanine; for Thres (mM), +IMP (0.2 mM): threshold concentration in the presence of 0.2 mM IMP
# Description: HEK293 cells that stably express T1R3 and inducibly express T1R1 were exposed to nucleotide derivatives alone to activate the umami receptor. Activation of the T1R1/T1R3 receptor was detected by a change in intracellular calcium levels using a calcium sensitive fluorescent dye. Cells that express T1R3 but not T1R1 were used as a control. A FLIPR® Tetra or a FlexStation® 3 was used for data capture.
# (§1) HEK293 cells that stably express T1R3 and inducibly express T1R1 were exposed to nucleotide derivatives alone or in combination with one or more amino acids and/or one or more nucleotides to activate the umami receptor. Activation of the T1R1/T1R3 receptor was detected by a change in intracellular calcium levels using a calcium sensitive fluorescent dye and/or a luminescent reporter system. Cells that express T1R3 but not T1R1 were used as a control. A FLIPR® Tetra or a FlexStation® 3 was used for data capture.
# HEK293 cells that stably express T1R3 and inducibly express T1R1 were exposed to transmembrane compounds alone or in combination with one or more amino acids and/or one or more nucleotides to activate the umami receptor. Activation of the T1R1/T1R3 receptor was detected by a change in intracellular calcium levels using a calcium sensitive fluorescent dye. Cells that express T1R3 but not T1R1 were used as a control. A FLIPR® Tetra or a FlexStation® 3 was used for data capture.
# In each experiment, serial dilutions of up to 10 mM of the transmembrane compound were added to the T1R1/T1R3-expressing cells.
# [2] = target: T1, cat T1R1/T1R3 receptor (Felis catus, UniProt A0ABI7Z2I4); assay: cell-based
# T1 sequence (A0ABI7Z2I4 171-420): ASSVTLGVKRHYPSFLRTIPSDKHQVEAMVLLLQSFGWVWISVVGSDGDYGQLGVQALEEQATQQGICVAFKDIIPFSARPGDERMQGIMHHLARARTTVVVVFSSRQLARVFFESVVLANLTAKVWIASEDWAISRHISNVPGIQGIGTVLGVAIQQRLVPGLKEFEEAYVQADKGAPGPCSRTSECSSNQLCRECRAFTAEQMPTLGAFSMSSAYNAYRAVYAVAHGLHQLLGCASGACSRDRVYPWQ
# T1 sequence (Q49KI5 25-865 E206Q/N523D/F654L partner): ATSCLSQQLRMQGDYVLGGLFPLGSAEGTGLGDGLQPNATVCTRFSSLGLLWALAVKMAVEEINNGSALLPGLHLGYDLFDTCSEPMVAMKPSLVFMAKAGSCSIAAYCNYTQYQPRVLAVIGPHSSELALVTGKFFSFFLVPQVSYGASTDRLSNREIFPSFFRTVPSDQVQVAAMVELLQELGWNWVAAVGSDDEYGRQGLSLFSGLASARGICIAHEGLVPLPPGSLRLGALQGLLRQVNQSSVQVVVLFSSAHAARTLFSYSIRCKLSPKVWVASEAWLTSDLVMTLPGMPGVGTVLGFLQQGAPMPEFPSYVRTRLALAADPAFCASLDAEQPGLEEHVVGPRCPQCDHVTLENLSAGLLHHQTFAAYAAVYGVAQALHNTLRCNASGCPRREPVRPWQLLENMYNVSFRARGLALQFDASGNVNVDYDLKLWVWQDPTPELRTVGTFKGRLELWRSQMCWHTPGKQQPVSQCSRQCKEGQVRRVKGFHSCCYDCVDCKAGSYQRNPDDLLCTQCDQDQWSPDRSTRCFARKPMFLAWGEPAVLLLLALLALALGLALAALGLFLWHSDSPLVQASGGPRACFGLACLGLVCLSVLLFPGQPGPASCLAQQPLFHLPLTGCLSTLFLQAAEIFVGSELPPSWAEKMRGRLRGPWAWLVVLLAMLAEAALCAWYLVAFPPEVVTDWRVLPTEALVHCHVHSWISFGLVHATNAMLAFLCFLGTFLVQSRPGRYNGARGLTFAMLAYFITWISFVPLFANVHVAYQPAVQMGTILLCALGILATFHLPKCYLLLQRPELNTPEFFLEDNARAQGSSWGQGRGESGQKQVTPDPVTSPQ
# Description: as §1
# [3] = EC50 (mM), +Alanine (20 mM) + IMP (0.2 mM), in the presence of 20 mM alanine and 0.2 mM IMP
# [4] = EC50 (mM), +IMP (0.2 mM), in the presence of 0.2 mM IMP
# [5] = T1R1/T1R3 EC50 +0.2 mM IMP, +0.2 mM IMP
# [6] = T1R1/T1R3 EC50 +20 mM L-alanine + 0.2 mM IMP, +20 mM L-alanine + 0.2 mM IMP
# [7] = alone in buffer, read-out: T1R1/T1R3 EC50 alone in buffer
# [8] = T1R1/T1R3 EC50 +20 mM L-alanine, +20 mM L-alanine
# [9] = compound alone in buffer, read-out: EC50 (mM), +buffer (alone)
smiles,measurement,setting,value
Nc1nc2c(ncn2[C@@H]2O[C@H](COP(=O)(O)OP(=O)(O)O)[C@@H](O)[C@H]2O)c(=S)[nH]1 [6-Thioguanosine-5′-O-diphosphate],"Max resp % of IMP, +Alanine (20 mM)",[1],152.8%
same,"Thres (mM), +Alanine (20 mM)",[1],0.03 mM
same,EC50,[1]; [3],0.28 mM
same,"Max resp ΔF/F, +IMP (0.2 mM)",[1]; in the presence of 0.2 mM IMP,0.0720 ΔF/F
same,"Max resp % of Ala, +IMP (0.2 mM)",[1]; in the presence of 0.2 mM IMP,9.3%
CC(=O)Nc1ccc(C(=O)Nc2cc(-c3ccccc3)nn2CCO)cc1 [4-acetamido-N-(1-(2-hydroxyethyl)-3-phenyl-1H-pyrazol-5-yl)benzamide],"Max resp % of IMP, +Alanine (20 mM)",[1],1.8%
same,EC50,[1]; [4],> 1 mM
same,EC50,[1]; [5],> 0.1 mM
same,EC50,[1]; [6],> 0.1 mM
same,"Max resp % of Ala, +IMP (0.2 mM)",[1]; in the presence of 0.2 mM IMP,58.8%
O=C(O)C1CCCCC1C(=O)Nc1cc(Cl)cc(Cl)c1 (centres unmarked),EC50,[1],0.49 ± 0.01 mM
same,EC50,[1]; [5],0.18 ± 0.01 mM
same,EC50,[1]; [7],0.37 ± 0.05 mM
O=C(NCCc1ccccc1)c1ccccc1 [N-phenethylbenzamide],"Max resp % of IMP, +Alanine (20 mM)",[1],20.4%
same,"Thres (mM), +Alanine (20 mM)",[1],0.6 mM
same,EC50,[1]; [3],0.09 mM
same,EC50,"[1]; EC50 (mM), +Alanine (20 mM), in the presence of 20 mM alanine",> 1 mM
same,EC50,[1]; [4],0.12 mM
same,EC50,[1]; [5],0.12 ± 0.03 mM
same,EC50,[1]; [8],> 1 mM
same,EC50,[1]; [7],0.33 ± 0.01 mM
same,EC50,[1]; [9],0.33 mM
same,"Max resp ΔF/F, +IMP (0.2 mM)",[1]; in the presence of 0.2 mM IMP,0.9800 ΔF/F
same,"Max resp % of Ala, +IMP (0.2 mM)",[1]; in the presence of 0.2 mM IMP,126.0%
same,"Thres (mM), +IMP (0.2 mM)",[1],0.01 mM
"O=C(O)C1CCCCC1C(=O)Nc1cc(Cl)cc(Cl)c1 (centres unmarked) [2-((3,5-dichlorophenyl)carbamoyl)cyclohexanecarboxylic acid]","Max resp % of IMP, +Alanine (20 mM)",[1],163.5%
same,"Thres (mM), +Alanine (20 mM)",[1],0.1 mM
same,"Max resp % of Ala, +IMP (0.2 mM)",[1]; in the presence of 0.2 mM IMP,157.9%
same,"Thres (mM), +IMP (0.2 mM)",[1],0.03 mM
"O=C(NCCc1ccccc1)c1ccc2c(c1)OCO2 [N-phenethylbenzo[d][1,3]dioxole-5-carboxamide]","Max resp % of IMP, +Alanine (20 mM)",[1],11.3%
same,"Thres (mM), +Alanine (20 mM)",[1],1.0 mM
same,EC50,[1]; [3],0.03 mM
same,EC50,[1]; [4],0.04 mM
same,EC50,[1]; [5],0.04 ± 0.01 mM
same,EC50,[1]; [8],> 1 mM
same,EC50,[1]; [7],0.12 ± 0.07 mM
same,EC50,[1]; [9],0.12 mM
same,"Max resp % of Ala, +IMP (0.2 mM)",[1]; in the presence of 0.2 mM IMP,92.0%
same,"Thres (mM), +IMP (0.2 mM)",[1],0.01 mM
"O=C(NCCCCNC(=O)c1cccnc1)c1cccnc1 [N,N′-(butane-1,4-diyl)dinicotinamide]","Max resp % of IMP, +Alanine (20 mM)",[1],9.5%
same,"Thres (mM), +Alanine (20 mM)",[1],1.0 mM
same,"Max resp % of Ala, +IMP (0.2 mM)",[1]; in the presence of 0.2 mM IMP,49.2%
same,"Thres (mM), +IMP (0.2 mM)",[1],0.1 mM
"CCCCc1nn(CC(=O)N2CCCC2)c(=O)n1Cc1ccccc1 [4-benzyl-3-butyl-1-(2-oxo-2-(pyrrolidin-1-yl)ethyl)-1H-1,2,4-triazol-5(4H)-one]","Max resp % of IMP, +Alanine (20 mM)",[1],129.9%
same,"Thres (mM), +Alanine (20 mM)",[1],0.3 mM
same,EC50,[1]; [5],> 0.3 mM
same,EC50,[1]; [6],> 0.3 mM
same,"Max resp % of Ala, +IMP (0.2 mM)",[1]; in the presence of 0.2 mM IMP,193.2%
same,"Thres (mM), +IMP (0.2 mM)",[1],0.1 mM
Nc1nc2c(ncn2[C@@H]2O[C@H](COP(=O)(O)O)[C@@H](O)[C@H]2O)c(=S)[nH]1 [6-Thiogaunosine-5′-O-monophosphate],Max resp. (ΔF/F),[2],1.3614 ΔF/F
same,Max. resp. % of IMP,[2],140.6 % of IMP
"CCOC(=O)NC(=O)C(c1ccccc1)c1ccccc1 [Ro 01-6128, reference compound]","Max resp % of IMP, +Alanine (20 mM)",[1],74.8%
same,"Thres (mM), +Alanine (20 mM)",[1],0.3 mM
same,"Max resp % of Ala, +IMP (0.2 mM)",[1]; in the presence of 0.2 mM IMP,199.7%
same,Activity,[1]; overall call: active or N/A (not active) on T1R1/T1R3,active
same,"Thres (mM), +IMP (0.2 mM)",[1],0.01 mM
O=c1[nH]c(=O)c2ncn([C@@H]3O[C@H](COP(=O)(O)O)[C@@H](O)[C@H]3O)c2[nH]1 [xanthosine monophosphate],Activity,[2],active
same,Threshold,[2],0.025 mM
"O=c1ccn([C@@H]2O[C@H](COP(=O)(O)O)[C@@H](O)[C@H]2O)c(=O)[nH]1 [UMP, uridine monophosphate, reference compound]",EC50,[2],> 30000 µM
CNc1ccccc1C(=O)OC1C[C@H](n2cnc3c(=O)[nH]c(N)nc32)O[C@@H]1COP(=O)(O)O (some centres unmarked) [2′-Deoxy-3′-O-(N′-methylanthraniloyl) guanosine-5′-O-monophosphate],Activity,[2],active
same,Max resp. (ΔF/F),[2],0.295 ΔF/F
same,Max. resp. % of IMP,[2],23.7 % of IMP
same,Threshold,[2],0.0025 mM
same,function as activators of T1R1/T1R3 (in words),[2]; in the presence of alanine,activators of T1R1/T1R3
"Nc1nc2c(ncn2[C@H]2O[C@@H](COP(=O)(O)O)[C@H](O)[C@@H]2O)c(=O)[nH]1 (stereo in doubt) [guanosine monophosphate, reference compound]",Activity,[2],active
same,EC50,[2],30 µM
same,Threshold,[2],0.008 mM
Nc1nc2c(ncn2[C@@H]2O[C@H](COP(=O)(O)O)[C@@H](O)[C@H]2O)c(=S)[nH]1 [6-Thioguanosine-5′-O-monophosphate],Activity,[2],active
"O=P(O)(O)OP(=O)(O)OP(=O)(O)OC[C@H]1O[C@@H](n2cnc3c(O)ncnc32)[C@H](O)[C@@H]1O [inosine triphosphate (ITP), inosine triphosphate]",EC50,[2],80 µM
Nc1ncnc2c1ncn2[C@H]1C[C@H](O)[C@@H](COP(=O)(O)O)O1 [2′-Deoxyadenosine 5′-monophosphate],Activity,[2],active
same,EC50,[2],140 µM
same,Threshold,[2],0.035 mM
O=P(O)(O)OCC1OC(n2cnc3c(Cl)ncnc32)C(O)C1O (centres unmarked) [6-Chloropurineriboside-5′-O-monophosphate],Activity,[2],active
same,Max resp. (ΔF/F),[2],1.5325 ΔF/F
same,Max. resp. % of IMP,[2],123.3 % of IMP
"O=P(O)(O)OC[C@H]1O[C@@H](n2cnc3c2ncn2ccnc32)[C@H](O)[C@@H]1O [1,N6-Ethenoadenosine-5′-O-monophosphate]",Activity,[2]; +Alanine (20 mM),active
"O=c1[nH]cnc2c1ncn2C1OC(COP(=O)(O)OP(=O)(O)O)C(O)C1O (centres unmarked) [Inosine 5′-diphosphate (IDP) sodium salt, inosine 5′-diphosphate (IDP) sodium salt]",Activity,[2],active
same,Max resp. (ΔF/F),[2],0.3 ΔF/F
same,Max. resp. % of IMP,[2],33.3 % of IMP
same,Threshold,"[2]; threshold amount that results in activation of T1R1/T1R3, 20 mM alanine",0.1625 mM
